Where a name gives a salt, the structure may show the parent alone.

One experiment addresses T1, rat NaPi-2b (Rattus norvegicus, UniProt Q9JJ09).
T1 construct: expressed in transfected cells; host or cells: Xenopus oocytes injected with cRNA
T1 sequence (Q9JJ09 1-695): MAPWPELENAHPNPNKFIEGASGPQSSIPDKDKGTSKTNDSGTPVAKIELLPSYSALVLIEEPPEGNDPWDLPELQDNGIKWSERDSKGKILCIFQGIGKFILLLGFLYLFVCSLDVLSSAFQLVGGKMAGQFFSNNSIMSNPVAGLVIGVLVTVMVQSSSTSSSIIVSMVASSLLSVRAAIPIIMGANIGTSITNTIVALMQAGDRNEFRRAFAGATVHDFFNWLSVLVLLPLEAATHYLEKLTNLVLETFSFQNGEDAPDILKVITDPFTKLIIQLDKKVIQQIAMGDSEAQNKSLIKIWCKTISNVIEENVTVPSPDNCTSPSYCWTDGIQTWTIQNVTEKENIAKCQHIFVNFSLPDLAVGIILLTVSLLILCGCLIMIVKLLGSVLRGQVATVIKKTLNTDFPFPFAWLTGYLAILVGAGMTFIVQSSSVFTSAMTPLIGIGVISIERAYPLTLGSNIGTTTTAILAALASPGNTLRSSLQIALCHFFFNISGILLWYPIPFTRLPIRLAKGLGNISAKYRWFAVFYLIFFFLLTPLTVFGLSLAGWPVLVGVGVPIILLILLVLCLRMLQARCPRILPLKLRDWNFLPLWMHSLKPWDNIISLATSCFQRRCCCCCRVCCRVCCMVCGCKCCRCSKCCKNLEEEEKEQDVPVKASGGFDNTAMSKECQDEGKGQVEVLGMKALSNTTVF
As to the kind of experiment: Sodium-dependent phosphate uptake of Xenopus oocytes which expressed NaPi-2b (32P). Particulars: Xenopus oocytes expressing rat NaPi-2b, 32P radioactive phosphorus; read-out: IC50 (phosphate uptake inhibitory activity). It is filed as cell-based. In a few lines: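 Steps: rat NaPi-2b cDNA cloned from small intestine; cRNA made and injected into oocytes; 2-day expression; 32P phosphate uptake with compound; % inhibition at 300/100 μM taken from one curve.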
For the compound `Cc1csc(NC(=O)c2cccc(CN(CC(C)O)CC(C)O)c2)c1C(=O)N/N=C/c1ccc(Cl)c(C(F)(F)F)c1` (centres unmarked) [Compound 851, 3-{[Bis-(2-hydroxy-propyl)-amino]-methyl}-N-[3-(4-chloro-3-trifluoromethyl-benzylidene-hydrazinocarbonyl)-4-methyl-thiophen-2-yl]-benzamide; hydrochloride], the IC50 (in general, the point on the concentration scale where inhibition reaches its midpoint) is 1.36 µM. Same read-out and setting: for `CCN(CC)CCN(C)Cc1cccc(C(=O)Nc2ccc(OCCCCF)cc2C(=O)N/N=C/c2ccc(Cl)c(C(F)(F)F)c2)c1` [Compound 1060, N-[2-(4-Chloro-3-trifluoromethyl-benzylidene-hydrazinocarbonyl)-4-(4-fluoro-butoxy)-phenyl]-3-{[(2-diethylamino-ethyl)-methyl-amino]-methyl}-benzamide] the value was 0.44 µM. For `Cc1cccc(/C=N/NC(=O)c2cc(Cl)ccc2NC(=O)c2cccc(CN3CCC(N4CCCCC4)CC3)c2)c1` [Compound 370, 3-[1,4′]Bipiperidinyl-1′-ylmethyl-N-[4-chloro-2-(3-methyl-benzylidene-hydrazinocarbonyl)-phenyl]-benzamide], the IC50 was 1.86 µM. As for `Cc1cccc(/C=N/NC(=O)c2cc(Br)ccc2NC(=O)c2ccc(CN3CCC(N4CCCCC4)CC3)cc2)c1` [Compound 310, 4-[1,4′]Bipiperidinyl-1′-ylmethyl-N-[4-bromo-2-(3-methyl-benzylidene-hydrazinocarbonyl)-phenyl]-benzamide], the concentration for half-maximal inhibition (IC50) was 7.82 µM. With `Cc1ccc(/C=N/NC(=O)c2cc(Br)ccc2NC(=O)c2ccc(CSCCCO)cc2)cc1` [Compound 274, N-[4-Bromo-2-(4-methyl-benzylidene-hydrazinocarbonyl)-phenyl]-4-(3-hydroxy-propylsulfanylmethyl)-benzamide], the IC50 is 1.04 µM. On the same count and under the same terms, for `Cc1ccc(/C=N/NC(=O)c2c(C)csc2NC(=O)c2cccc(CN3CCC(N4CCCCC4)CC3)c2)cc1C` [Compound 569, 3-[1,4′]Bipiperidinyl-1′-ylmethyl-N-[3-(3,4-dimethyl-benzylidene-hydrazinocarbonyl)-4-methyl-thiophen-2-yl]-benzamide] the value was less than 3 µM. Same read-out and setting: for `O=C(Nc1cscc1C(=O)N/N=C/c1cccc(F)c1)c1cccc(CN2CCN(CCO)CC2)c1` [Compound 980, N-[4-(3-Fluoro-benzylidene-hydrazinocarbonyl)-thiophen-3-yl]-3-[4-(2-hydroxy-ethyl)-piperazin-1-ylmethyl]-benzamide] the value was 13.8 µM; for `O=C(Nc1ccccc1C(=O)N/N=C/c1cccc(F)c1)c1ccccn1` [Compound 505, Pyridin-2-carboxylic acid [2-(3-fluoro-benzylidene-hydrazinocarbonyl)-phenyl]-amide], 1.21 µM; for `CCN(CCO)Cc1cccc(C(=O)Nc2ccc(Cl)cc2C(=O)N/N=C/c2ccc(O)cc2)c1` [Compound 431, N-[4-Chloro-2-(4-hydroxy-benzylidene-hydrazinocarbonyl)-phenyl]-3-{[ethyl-(2-hydroxy-ethyl)-amino]-methyl}-benzamide], 5.57 µM. As to `CCN(CCO)Cc1cccc(C(=O)Nc2ccc(Cl)cc2C(=O)N/N=C/c2cccc(OC)c2)c1` [Compound 428, N-[4-Chloro-2-(3-methoxy-benzylidene-hydrazinocarbonyl)-phenyl]-3-{[ethyl-(2-hydroxy-ethyl)-amino]-methyl}-benzamide], the concentration for half-maximal inhibition (IC50) amounted to 1.82 µM. For `Cc1ccc(/C=N/NC(=O)c2c(C)csc2NC(=O)c2cccc(CSc3nc[nH]n3)c2)cc1` [Compound 552, N-[4-Methyl-3-(4-methyl-benzylidene-hydrazinocarbonyl)-thiophen-2-yl]-3-(1H-[1,2,4]triazol-3-ylsulfanylmethyl)-benzamide], the half-maximal inhibitory concentration (IC50) was 2.63 µM. For `COc1ccc(/C=N/NC(=O)c2cc(N3CCOCC3)ccc2NC(=O)c2ccc(OC)c(OC)c2)cc1` [Compound 941, 3,4-Dimethoxy-N-[2-(4-methoxy-benzylidene-hydrazinocarbonyl)-4-morpholin-4-yl-phenyl]-benzamide], the half-maximal inhibitory concentration (IC50) was 8.72 µM. Same read-out and setting: for `O=C(Nc1ccc(Br)cc1C(=O)N/N=C/c1ccc(F)cc1)c1cccs1` [Compound 158, Thiophene-2-carboxylic acid [4-bromo-2-(4-fluoro-benzylidene-hydrazinocarbonyl)-phenyl]-amide] the value was 3.28 µM. The same measure, in the same setting: under `CCN(CC)CCN(Cc1cccc(C(=O)Nc2sc3c(c2C(=O)N/N=C/c2ccc(C)cc2)CCCC3)c1)C(C)=O` [Compound 653, 3-{[Acetyl-(2-diethylamino-ethyl)-amino]-methyl}-N-[3-(4-methyl-benzylidene-hydrazinocarbonyl)-4,5,6,7-tetrahydro-benzo[b]-thiophen-2-yl]-benzamide] stands 1.1 µM; under `CCSCCNCc1ccc(C(=O)Nc2ccc(Br)cc2C(=O)N/N=C/c2ccc(C)cc2)cc1` [Compound 765, N-[4-Bromo-2-(4-methyl-benzylidene-hydrazinocarbonyl)-phenyl]-4-[(2-ethylsulfanyl-ethylamino)-methyl]-benzamide], 6.88 µM; under `Cc1ccc(/C=N/NC(=O)c2cc(Br)ccc2NC(=O)c2ccncc2)cc1C` [Compound 170, N-[4-Bromo-2-(3,4-dimethyl-benzylidene-hydrazinocarbonyl)-phenyl]-isonicotinamide], 5.34 µM. The same measure, in the same setting: for `CCN(CC)CCNCc1ccc(C(=O)Nc2ccc(Br)cc2C(=O)N/N=C/c2cccc(C)c2)cc1` [Compound 294, N-[4-Bromo-2-(3-methyl-benzylidene-hydrazinocarbonyl)-phenyl]-4-[(2-diethylamino-ethylamino)-methyl]-benzamide] the value was 7.8 µM; for `Cc1csc(NC(=O)c2cccc(CN(CC(C)O)CC(C)O)c2)c1C(=O)N/N=C/c1cccc(F)c1` (centres unmarked) [Compound 590, 3-{[Bis-(2-hydroxy-propyl)-amino]-methyl}-N-[3-(3-fluoro-benzylidene-hydrazinocarbonyl)-4-methyl-thiophen-2-yl]-benzamide], 6.18 µM. For the compound `COc1ccc(C(=O)Nc2ccccc2C(=O)N/N=C/c2ccc(C)c(C)c2)cc1` [Compound 94, N-[2-(3,4-Dimethyl-benzylidene-hydrazinocarbonyl)-phenyl]-4-methoxy-benzamide], the 50% inhibitory concentration (IC50) stood at 5.63 µM. The same measure, in the same setting: under `CCN(CC)CCN(C)Cc1ccc(C(=O)Nc2ccc(Br)cc2C(=O)N/N=C/c2ccc(C)c(C)c2)cc1` [Compound 280, N-[4-Bromo-2-(3,4-dimethyl-benzylidene-hydrazinocarbonyl)-phenyl]-4-{[(2-diethylamino-ethyl)-methyl-amino]-methyl}-benzamide] stands 0.78 µM; under `COc1ccc(C(=O)Nc2ccccc2C(=O)N/N=C/c2cccc(C)c2)cc1` [Compound 49, 4-Methoxy-N-[2-(3-methyl-benzylidene-hydrazinocarbonyl)-phenyl]-benzamide], 3.37 µM.

The same experiment, now with this note: phosphate uptake, oocytes expressing rat NaPi-2b; 300 μM, determined from inhibition curve.
In the case of `Cc1ccc(/C=N/NC(=O)c2cc(Br)ccc2NC(=O)c2ccc(CN3CCN(c4ccccn4)CC3)cc2)cc1` [Compound 773, N-[4-Bromo-2-(4-methyl-benzylidene-hydrazinocarbonyl)-phenyl]-4-(4-pyridin-2-yl-piperazin-1-ylmethyl)-benzamide], the inhibition (usually the share of the control response that was lost under treatment) at 300 µM was determined as 53.9%. The same measure, in the same setting: for `CN(CCCNCc1ccc(C(=O)Nc2ccc(Br)cc2C(=O)N/N=C/c2ccc(F)cc2)cc1)c1ccccc1` [Compound 759, N-[4-Bromo-2-(4-fluoro-benzylidene-hydrazinocarbonyl)-phenyl]-4-{[3-(methyl-phenyl-amino)-propylamino]-methyl}-benzamide] the value was 63.9%.
